From US10370401B2, “Substituted nucleosides, nucleotides and analogs thereof” (Alios BioPharma, Inc., priority 2013, dated 2019)
Like-named read-outs stand apart in the source and are kept apart here.

Legend:
NS5B570-Con1 (Delta-21) = NS5B570-Con1 (Delta-21) (Hepatitis C virus genotype 1b, UniProt Q9WMX2); assay: biochemical; design: species or system HCV
[1] = molecular target: human rhinovirus 16 polymerase (HRV16pol) (Human rhinovirus 16, UniProt Q82122); assay: biochemical
Human rhinovirus 1B = assay: Picornavirus assay (CPE, CellTiter-Glo, HeLa-OHIO cells); format: cell-based; settings: Rhinovirus A, 96 h
[2] = HRV16pol, 2.5 h at 30° C., mean of several independent experiments, read-out: IC50
[3] = Human rhinovirus 1B, HeLa-OHIO cells, 4 d at 33° C., read-out: EC50

Sequence of human rhinovirus 16 polymerase (HRV16pol) (Q82122 1694-2153 limits assumed): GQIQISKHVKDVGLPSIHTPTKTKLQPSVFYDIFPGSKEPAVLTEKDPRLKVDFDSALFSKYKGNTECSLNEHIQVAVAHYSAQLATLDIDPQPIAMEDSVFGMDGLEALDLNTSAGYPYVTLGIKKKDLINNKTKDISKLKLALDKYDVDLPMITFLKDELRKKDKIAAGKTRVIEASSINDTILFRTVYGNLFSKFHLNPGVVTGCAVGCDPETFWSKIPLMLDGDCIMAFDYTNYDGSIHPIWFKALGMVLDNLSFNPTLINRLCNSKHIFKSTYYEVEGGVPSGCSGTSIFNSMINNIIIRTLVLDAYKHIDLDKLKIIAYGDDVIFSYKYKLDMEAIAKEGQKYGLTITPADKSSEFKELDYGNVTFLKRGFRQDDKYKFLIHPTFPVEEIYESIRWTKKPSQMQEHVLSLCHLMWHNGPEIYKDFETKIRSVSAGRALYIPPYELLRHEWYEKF

Structure (SMILES) | IC50 (NS5B570-Con1 (Delta-21)) [µM] | IC50 [1, 2] [µM] | also measured
C#C[C@]1(O)[C@H](n2cnc3c(N)ncnc32)O[C@](C)(COP(=O)(O)OP(=O)(O)OP(=O)(O)O)[C@H]1O [compound 59] | 1 to 10 | < 100 | 
C[C@@]1(O)[C@H](O)[C@@](CCl)(COP(=O)(O)OP(=O)(O)OP(=O)(O)O)O[C@H]1n1ccc(=O)[nH]c1=O [compound 244] | < 1 | < 10 | 
C#C[C@@]1(n2cnc3c(=O)[nH]c(N)nc32)O[C@H](COP(=O)(O)OP(=O)(O)OP(=O)(O)O)[C@@H](O)[C@H]1F [compound 242] |  | < 10 | 
CC(C)OC(=O)OC(C)OP(=O)(OC[C@@]1(CF)O[C@@H](n2ccc(=O)[nH]c2=O)[C@](C)(O)[C@@H]1O)OC(C)OC(=O)OC(C)C (stereo partly shown) [Compound 159] |  |  | EC50 (Human rhinovirus 1B; [3]): 10 to 100 µM
N#C[C@@]1(n2ccc(=O)[nH]c2=O)O[C@](CF)(COP(=O)(O)OP(=O)(O)OP(=O)(O)O)[C@@H](O)[C@H]1O [compound 237] |  | < 1 | 
C#C[C@@]1(O)[C@H](O)[C@@H](COP(=O)(O)OP(=O)(O)OP(=O)(O)O)O[C@H]1n1ccc2c(N)ncnc21 [compound 205] | < 1 | < 1 | 
C[C@]1(COP(=O)(O)OP(=O)(O)OP(=O)(O)O)O[C@@H](n2ccc(N)nc2=O)C(F)(F)[C@@H]1O [compound 277] | 10 to 100 | < 10 | 
C[C@]1(O)[C@H](n2cnc3c(N)ncnc32)O[C@](F)(COP(=O)(O)OP(=O)(O)OP(=O)(O)O)[C@H]1O [compound 240] | < 1 | < 1 | 
C=C[C@]1(O)[C@H](n2ccc(=O)[nH]c2=O)O[C@](F)(COP(=O)(O)OP(=O)(O)OP(=O)(O)O)[C@H]1O [compound 236] | 1 to 10 | < 10 | 
CC[C@]1(CO)O[C@@H](n2ccc(N)nc2=O)C(F)(F)[C@@H]1O [Compound 1] |  |  | EC50 (Human rhinovirus 1B; [3]): 1 to 10 µM
C#C[C@]1(COP(=O)(O)OP(=O)(O)OP(=O)(O)O)O[C@@H](n2ccc(N)nc2=O)C(F)(F)[C@@H]1O [compound 279] | 10 to 100 | < 10 | 
C[C@@]1(O)[C@H](O)[C@@](CF)(CO[P@@](O)(=S)OP(=O)(O)OP(=O)(O)O)O[C@H]1n1ccc(=O)[nH]c1=O [Compound 98] | 10 to 100 |  | 
CC(C)OC(=O)OCOP1(=O)OC[C@@]2(CF)O[C@@H](n3ccc(=O)[nH]c3=O)[C@](C)(O)[C@@H]2O1 (stereo partly shown) [Compound 158] |  |  | EC50 (Human rhinovirus 1B; [3]): 10 to 100 µM
C[C@]1(O)[C@H](n2ccc(=O)[nH]c2=O)O[C@](C)(COP(=O)(O)OP(=O)(O)OP(=O)(O)O)[C@H]1O [compound 58] |  | < 10 | 
[N-]=[N+]=NC[C@]1(CO)O[C@@H](n2ccc(N)nc2=O)C(F)(F)[C@@H]1O [Compound 296] |  |  | EC50 (Human rhinovirus 1B; [3]): 1 to 10 µM
C[C@H](NP(=O)(OC[C@@]1(F)O[C@@H](n2cnc3c(=O)[nH]c(N)nc32)[C@](C)(O)[C@@H]1O)Oc1ccccc1)C(=O)OC1CCCCC1 (stereo partly shown) [Compound 7] |  |  | EC50 (Human rhinovirus 1B): 1 to 10 µM
C[C@]1(F)[C@H](n2ccc(N)nc2=O)O[C@](F)(CO)[C@H]1O [Compound 18] |  |  | EC50 (Human rhinovirus 1B; [3]): 10 to 100 µM
C=C[C@]1(COP(=O)(O)OP(=O)(O)OP(=O)(O)O)O[C@@H](n2ccc(N)nc2=O)C(F)(F)[C@@H]1O [compound 79] | 10 to 100 | < 10 | 
C[C@@]1(O)[C@H](O)[C@@](CF)(CO[P@](O)(=S)OP(=O)(O)OP(=O)(O)O)O[C@H]1n1ccc(=O)[nH]c1=O [Compound 97] |  |  | IC50 [1]: < 10 µM
[N-]=[N+]=NC[C@]1(COP(=O)(O)OP(=O)(O)OP(=O)(O)O)O[C@@H](n2ccc(N)nc2=O)[C@H](F)[C@@H]1O [compound 107] |  | < 1 | 
CC(C)OC(=O)[C@H](C)NP(=O)(OC[C@@]1(F)O[C@@H](n2ccc(=O)[nH]c2=O)[C@](C)(O)[C@@H]1O)Oc1ccccc1 (stereo partly shown) [Compound 5] |  |  | EC50 (Human rhinovirus 1B): 10 to 100 µM
Nc1ccn([C@@H]2O[C@](CF)(COP(=O)(O)OP(=O)(O)OP(=O)(O)O)[C@@H](O)C2(F)F)c(=O)n1 [compound 82] | 10 to 100 | < 1 | 
C[C@@]1(Cl)[C@H](O)[C@@](CF)(COP(=O)(O)OP(=O)(O)OP(=O)(O)O)O[C@H]1n1ccc(=O)[nH]c1=O [compound 210] | 1 to 10 |  | 
COCC(COC)OC(=O)OCOP(=O)(OCOC(=O)OC(COC)COC)OC[C@@]1(CF)O[C@@H](n2ccc(=O)[nH]c2=O)[C@](C)(O)[C@@H]1O [Compound 66] |  |  | EC50 (Human rhinovirus 1B; [3]): 10 to 100 µM
C=CC[C@@]1(O)[C@H](O)[C@@](CF)(COP(=O)(O)OP(=O)(O)OP(=O)(O)O)O[C@H]1n1ccc(=O)[nH]c1=O [compound 253] | 10 to 100 | < 10 | 
CC(C)(C)C(=O)OCOP(=O)(OCOC(=O)C(C)(C)C)OC[C@@]1(F)O[C@@H](n2ccc(=O)[nH]c2=O)[C@](C)(O)[C@@H]1O [Compound 151] |  |  | EC50 (Human rhinovirus 1B; [3]): < 1 µM

Structure (SMILES) | IC50 (NS5B570-Con1 (Delta-21)) [µM] | IC50 [1, 2] [µM] | also measured
Nc1ccn([C@@H]2O[C@@](COP(=O)(O)OP(=O)(O)OP(=O)(O)O)(C(F)F)[C@H](O)[C@@H]2F)c(=O)n1 [compound 168] |  | < 10 | 
[N-]=[N+]=NC[C@]1(COP(=O)(O)OP(=O)(O)OP(=O)(O)O)O[C@@H](n2ccc(N)nc2=O)[C@H](O)[C@@H]1O [compound 275] |  | < 10 | 
[N-]=[N+]=NC[C@]1(COP(=O)(O)OP(=O)(O)OP(=O)(O)O)O[C@@H](n2ccc(N)nc2=O)C(F)(F)[C@@H]1O [compound 274] |  | < 10 | 
C#C[C@@]1(O)[C@H](O)[C@@](CF)(COP(=O)(O)OP(=O)(O)OP(=O)(O)O)O[C@H]1n1cnc2c(N)ncnc21 [compound 93] | 10 to 100 | < 1 | 
C[C@]1(O)[C@H](n2ccc(=O)[nH]c2=O)O[C@@](COP(=O)(O)OP(=O)(O)OP(=O)(O)O)(C(F)F)[C@H]1O [compound 273] | 10 to 100 | < 10 | 
CC(C)OC(=O)[C@H](C)NP(=O)(OC[C@@]1(F)O[C@@H](n2ccc(=O)[nH]c2=O)[C@](C)(O)[C@@H]1O)Oc1ccc(Cl)cc1 (stereo partly shown) [Compound 152] |  |  | EC50 (Human rhinovirus 1B): 1 to 10 µM
CCOc1nc(N)nc2c1ncn2[C@@H]1O[C@](F)(COP(=O)(N[C@@H](C)C(=O)OCC(C)(C)C)Oc2ccccc2)[C@@H](O)[C@@]1(C)O (stereo partly shown) [Compound 33] |  |  | EC50 (Human rhinovirus 1B): < 1 µM
O=c1ccn([C@@H]2O[C@](CCl)(COP(=O)(O)OP(=O)(O)OP(=O)(O)O)[C@@H](O)C2(F)F)c(=O)[nH]1 [compound 73] | 10 to 100 | < 10 | 
C[C@H](NP(=O)(OC[C@@]1(F)O[C@@H](n2ccc(=O)[nH]c2=O)[C@](C)(O)[C@@H]1O)Oc1ccccc1)C(=O)OC1CCCCC1 (stereo partly shown) [Compound 8] |  |  | EC50 (Human rhinovirus 1B): 1 to 10 µM
C#C[C@@]1(O)[C@H](O)[C@@](CF)(COP(=O)(O)OP(=O)(O)OP(=O)(O)O)O[C@H]1n1ccc(=O)[nH]c1=O [compound 61] | < 1 | < 1 | 
O=c1ccn([C@@H]2O[C@](F)(COP(=O)(O)OP(=O)(O)OP(=O)(O)O)[C@@H](O)[C@]2(O)CF)c(=O)[nH]1 [compound 257] |  | < 10 | 
C[C@]1(O)[C@H](n2ccc(N)nc2=O)O[C@](C)(COP(=O)(O)OP(=O)(O)OP(=O)(O)O)[C@H]1O [compound 243] | 1 to 10 | < 10 | 
C=C[C@@]1(O)[C@H](O)[C@@](CF)(COP(=O)(O)OP(=O)(O)OP(=O)(O)O)O[C@H]1n1ccc(=O)[nH]c1=O [compound 251] |  | < 10 | 
C=C=C[C@@]1(O)[C@H](O)[C@@](CF)(COP(=O)(O)OP(=O)(O)OP(=O)(O)O)O[C@H]1n1ccc(=O)[nH]c1=O [compound 255] | 1 to 10 | < 10 | 
C#C[C@@]1(O)[C@H](O)[C@@H](COP(=O)(O)OP(=O)(O)OP(=O)(O)O)O[C@H]1n1cnc2c(=O)[nH]c(N)nc21 [compound 203] | < 1 |  | 
C#C[C@]1(F)[C@H](n2ccc(=O)[nH]c2=O)O[C@](F)(COP(=O)(O)OP(=O)(O)OP(=O)(O)O)[C@H]1O [compound 215] |  | < 10 | 
CCOc1nc(NC=O)nc2c1ncn2[C@@H]1O[C@](F)(COP(=O)(N[C@@H](C)C(=O)OC2CCCCC2)Oc2ccccc2)[C@@H](F)[C@@]1(C)O (stereo partly shown) [Compound 17] |  |  | EC50 (Human rhinovirus 1B): 10 to 100 µM
Nc1ccn([C@@H]2O[C@@](CO)(CCl)[C@@H](O)C2(F)F)c(=O)n1 [Compound 69] |  |  | EC50 (Human rhinovirus 1B; [3]): 1 to 10 µM
N#C[C@@]1(n2ccc(N)nc2=O)O[C@](CF)(COP(=O)(O)OP(=O)(O)OP(=O)(O)O)[C@@H](O)[C@H]1O [compound 238] |  | < 10 | 
[N-]=[N+]=NC[C@]1(CO)O[C@@H](n2ccc(N)nc2=O)[C@@H](O)[C@@H]1O [Compound 297] |  |  | EC50 (Human rhinovirus 1B; [3]): 10 to 100 µM
CCOc1nc(N)nc2c1ncn2[C@@H]1O[C@]2(F)CO[P@@](=O)(OC(C)C)O[C@H]2[C@@]1(C)F [Compound 87] |  |  | EC50 (Human rhinovirus 1B; [3]): 1 to 10 µM
C#C[C@@]1(O)[C@H](O)[C@@H](COP(=O)(O)OP(=O)(O)OP(=O)(O)O)O[C@H]1n1cnc2c(N)ncnc21 [compound 202] |  | < 1 | 
CC(C)OC(=O)[C@H](C)NP(=O)(OC[C@@]1(F)O[C@@H](n2ccc(=O)[nH]c2=O)[C@](C)(O)[C@@H]1O)Oc1cccc2ccccc12 (stereo partly shown) [Compound 150] |  |  | EC50 (Human rhinovirus 1B): 1 to 10 µM
C[C@@]1(O)[C@H](O)[C@](CO)(CF)O[C@H]1n1ccc(N)nc1=O [Compound 40] |  |  | EC50 (Human rhinovirus 1B; [3]): 10 to 100 µM
CC(=O)O[C@H]1[C@@](C)(O)[C@H](n2ccc(=O)[nH]c2=O)O[C@]1(F)COP(=O)(N[C@@H](C)C(=O)OC(C)C)Oc1ccc(Cl)cc1 (stereo partly shown) [Compound 153] |  |  | EC50 (Human rhinovirus 1B): 1 to 10 µM
